Measured values from patent US20120270237A9, “METHODS FOR THE IDENTIFICATION OF KINASE INTERACTING MOLECULES AND FOR THE PURIFICATION OF KINASE PROTEINS” (Cellzone AG, priority 2009, published 2012).

Assays:
Assay in all cases: Kinobeads competition binding, L-363 cell lysate
Design in all cases: endogenous in cells
Settings in all cases: 10 μM free compound, L-363 lysate
AurA = biological target: T1, AurA (Homo sapiens, UniProt O14965)
T1 sequence (O14965 1-403): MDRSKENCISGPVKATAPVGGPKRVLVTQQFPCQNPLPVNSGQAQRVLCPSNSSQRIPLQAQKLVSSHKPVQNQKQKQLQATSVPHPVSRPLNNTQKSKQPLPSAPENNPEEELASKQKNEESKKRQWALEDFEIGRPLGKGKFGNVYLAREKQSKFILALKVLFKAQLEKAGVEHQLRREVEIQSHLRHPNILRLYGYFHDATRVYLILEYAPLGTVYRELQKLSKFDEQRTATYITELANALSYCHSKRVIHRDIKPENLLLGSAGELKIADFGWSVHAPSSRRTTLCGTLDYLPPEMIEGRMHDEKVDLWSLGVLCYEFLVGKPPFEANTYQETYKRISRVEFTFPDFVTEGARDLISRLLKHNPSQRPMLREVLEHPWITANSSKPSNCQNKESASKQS
Method in brief: (§1)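 MG132-pretreated (20 μM, 3 h) L-363 lysate; 10 μM cpd vs DMSO; immobilized-cpd bead capture; SDS-PAGE, tryptic digest, iTRAQ 114/117; LC-MS/MS reporter quant.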

DNAPK = DNAPK (Homo sapiens, UniProt P78527)
DNAPK, sequence (P78527 whole entry): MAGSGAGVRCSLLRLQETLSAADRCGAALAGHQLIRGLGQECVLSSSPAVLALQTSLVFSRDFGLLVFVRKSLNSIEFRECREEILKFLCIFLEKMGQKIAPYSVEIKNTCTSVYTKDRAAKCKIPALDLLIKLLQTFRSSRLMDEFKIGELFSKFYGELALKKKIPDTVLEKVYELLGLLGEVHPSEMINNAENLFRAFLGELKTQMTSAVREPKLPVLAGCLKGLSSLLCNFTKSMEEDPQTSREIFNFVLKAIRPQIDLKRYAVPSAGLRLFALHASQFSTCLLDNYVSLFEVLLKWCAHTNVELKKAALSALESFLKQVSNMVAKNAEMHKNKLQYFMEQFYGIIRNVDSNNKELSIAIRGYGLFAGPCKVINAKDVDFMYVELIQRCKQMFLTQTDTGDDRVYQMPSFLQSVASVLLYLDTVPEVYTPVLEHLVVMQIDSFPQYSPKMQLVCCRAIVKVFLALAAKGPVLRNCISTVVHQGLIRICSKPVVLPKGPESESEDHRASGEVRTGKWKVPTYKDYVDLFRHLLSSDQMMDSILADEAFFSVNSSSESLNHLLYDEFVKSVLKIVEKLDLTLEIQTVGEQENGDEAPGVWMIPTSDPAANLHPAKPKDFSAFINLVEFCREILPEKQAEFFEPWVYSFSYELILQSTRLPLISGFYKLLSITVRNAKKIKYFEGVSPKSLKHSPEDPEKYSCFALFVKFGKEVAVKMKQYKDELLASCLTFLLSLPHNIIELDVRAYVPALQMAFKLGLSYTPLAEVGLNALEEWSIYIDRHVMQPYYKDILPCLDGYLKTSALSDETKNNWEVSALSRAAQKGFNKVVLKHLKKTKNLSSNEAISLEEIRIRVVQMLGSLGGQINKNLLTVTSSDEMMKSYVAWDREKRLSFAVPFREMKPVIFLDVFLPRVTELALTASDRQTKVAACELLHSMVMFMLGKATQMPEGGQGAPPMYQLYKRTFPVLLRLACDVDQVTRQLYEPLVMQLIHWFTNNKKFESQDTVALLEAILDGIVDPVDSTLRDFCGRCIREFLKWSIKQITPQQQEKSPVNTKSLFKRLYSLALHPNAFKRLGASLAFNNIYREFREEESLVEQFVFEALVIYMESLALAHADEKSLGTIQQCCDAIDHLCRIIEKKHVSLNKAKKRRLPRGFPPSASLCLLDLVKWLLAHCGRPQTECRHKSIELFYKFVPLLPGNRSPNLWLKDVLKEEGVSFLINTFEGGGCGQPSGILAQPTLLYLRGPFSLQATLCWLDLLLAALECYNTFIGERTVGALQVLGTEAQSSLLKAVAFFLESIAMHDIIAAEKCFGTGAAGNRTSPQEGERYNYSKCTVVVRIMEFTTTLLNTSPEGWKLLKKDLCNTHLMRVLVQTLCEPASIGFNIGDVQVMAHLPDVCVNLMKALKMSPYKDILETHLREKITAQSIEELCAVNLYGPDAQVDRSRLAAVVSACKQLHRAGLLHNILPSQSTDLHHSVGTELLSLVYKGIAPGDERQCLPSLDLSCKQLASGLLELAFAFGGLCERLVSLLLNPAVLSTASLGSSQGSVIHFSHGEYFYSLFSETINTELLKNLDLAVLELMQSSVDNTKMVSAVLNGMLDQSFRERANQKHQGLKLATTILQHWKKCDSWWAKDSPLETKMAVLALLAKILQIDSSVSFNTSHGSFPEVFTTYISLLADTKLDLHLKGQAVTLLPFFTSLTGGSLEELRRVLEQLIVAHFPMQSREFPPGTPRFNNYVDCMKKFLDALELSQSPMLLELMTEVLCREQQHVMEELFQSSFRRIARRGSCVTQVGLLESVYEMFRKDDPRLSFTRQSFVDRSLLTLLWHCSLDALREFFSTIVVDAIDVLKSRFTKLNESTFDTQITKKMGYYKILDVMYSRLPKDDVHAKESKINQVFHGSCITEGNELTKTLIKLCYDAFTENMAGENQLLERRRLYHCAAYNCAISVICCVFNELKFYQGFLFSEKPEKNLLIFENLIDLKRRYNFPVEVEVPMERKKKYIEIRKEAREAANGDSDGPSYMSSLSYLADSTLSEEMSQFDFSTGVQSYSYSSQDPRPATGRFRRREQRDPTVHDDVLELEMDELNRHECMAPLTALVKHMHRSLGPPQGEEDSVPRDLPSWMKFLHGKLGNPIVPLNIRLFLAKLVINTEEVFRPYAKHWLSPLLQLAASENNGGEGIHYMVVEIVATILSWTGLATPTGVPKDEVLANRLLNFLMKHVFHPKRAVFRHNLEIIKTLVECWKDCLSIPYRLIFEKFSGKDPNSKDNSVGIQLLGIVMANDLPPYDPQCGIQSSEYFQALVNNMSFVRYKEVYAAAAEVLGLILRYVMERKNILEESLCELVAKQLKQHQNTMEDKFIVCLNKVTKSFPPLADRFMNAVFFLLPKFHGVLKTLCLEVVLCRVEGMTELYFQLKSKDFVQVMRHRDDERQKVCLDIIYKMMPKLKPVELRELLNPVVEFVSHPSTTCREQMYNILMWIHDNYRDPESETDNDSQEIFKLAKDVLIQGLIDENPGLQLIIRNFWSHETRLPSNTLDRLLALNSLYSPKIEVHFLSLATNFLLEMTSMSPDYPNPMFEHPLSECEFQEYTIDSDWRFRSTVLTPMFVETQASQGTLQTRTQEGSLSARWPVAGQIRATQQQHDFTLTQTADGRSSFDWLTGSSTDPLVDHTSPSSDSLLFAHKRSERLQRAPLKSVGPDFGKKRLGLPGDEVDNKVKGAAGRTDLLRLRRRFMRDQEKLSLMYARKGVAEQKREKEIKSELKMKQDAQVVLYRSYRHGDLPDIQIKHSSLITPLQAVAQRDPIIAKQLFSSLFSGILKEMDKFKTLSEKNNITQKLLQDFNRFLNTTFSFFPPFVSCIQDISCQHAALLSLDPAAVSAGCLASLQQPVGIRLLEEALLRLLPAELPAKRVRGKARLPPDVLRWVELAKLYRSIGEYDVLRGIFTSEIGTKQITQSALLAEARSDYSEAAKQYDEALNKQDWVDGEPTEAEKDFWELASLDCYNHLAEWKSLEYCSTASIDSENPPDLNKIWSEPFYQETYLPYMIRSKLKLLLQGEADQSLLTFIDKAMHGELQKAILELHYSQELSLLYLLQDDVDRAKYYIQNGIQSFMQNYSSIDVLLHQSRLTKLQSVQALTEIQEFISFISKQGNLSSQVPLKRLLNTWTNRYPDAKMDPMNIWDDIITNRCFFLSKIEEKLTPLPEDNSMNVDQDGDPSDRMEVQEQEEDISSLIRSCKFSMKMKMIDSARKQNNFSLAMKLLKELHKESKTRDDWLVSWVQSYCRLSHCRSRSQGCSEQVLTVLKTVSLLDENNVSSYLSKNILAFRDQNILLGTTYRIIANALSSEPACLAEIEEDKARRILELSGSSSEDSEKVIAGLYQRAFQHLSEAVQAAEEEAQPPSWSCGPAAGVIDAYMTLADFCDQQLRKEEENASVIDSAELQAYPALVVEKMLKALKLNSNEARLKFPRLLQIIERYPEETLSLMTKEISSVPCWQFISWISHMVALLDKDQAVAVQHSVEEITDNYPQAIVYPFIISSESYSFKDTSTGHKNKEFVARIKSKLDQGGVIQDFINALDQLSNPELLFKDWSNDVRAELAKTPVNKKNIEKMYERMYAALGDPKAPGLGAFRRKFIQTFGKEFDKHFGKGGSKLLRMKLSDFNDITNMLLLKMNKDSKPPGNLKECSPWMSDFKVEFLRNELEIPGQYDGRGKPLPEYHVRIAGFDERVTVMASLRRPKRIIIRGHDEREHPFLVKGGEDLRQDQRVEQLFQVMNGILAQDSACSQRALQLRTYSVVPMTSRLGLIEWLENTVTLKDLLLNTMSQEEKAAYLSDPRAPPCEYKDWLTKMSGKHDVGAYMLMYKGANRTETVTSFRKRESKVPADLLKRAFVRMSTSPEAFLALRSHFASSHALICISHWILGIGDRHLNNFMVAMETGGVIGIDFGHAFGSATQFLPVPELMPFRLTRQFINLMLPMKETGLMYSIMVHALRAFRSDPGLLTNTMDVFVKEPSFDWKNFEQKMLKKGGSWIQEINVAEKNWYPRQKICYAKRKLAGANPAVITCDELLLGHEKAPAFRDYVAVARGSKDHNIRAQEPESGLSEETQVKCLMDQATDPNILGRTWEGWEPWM
Method in brief: as §1

IRAK4 = biological target: T2, IRAK4 (Homo sapiens, UniProt Q9NWZ3)
T2 sequence (Q9NWZ3 1-460): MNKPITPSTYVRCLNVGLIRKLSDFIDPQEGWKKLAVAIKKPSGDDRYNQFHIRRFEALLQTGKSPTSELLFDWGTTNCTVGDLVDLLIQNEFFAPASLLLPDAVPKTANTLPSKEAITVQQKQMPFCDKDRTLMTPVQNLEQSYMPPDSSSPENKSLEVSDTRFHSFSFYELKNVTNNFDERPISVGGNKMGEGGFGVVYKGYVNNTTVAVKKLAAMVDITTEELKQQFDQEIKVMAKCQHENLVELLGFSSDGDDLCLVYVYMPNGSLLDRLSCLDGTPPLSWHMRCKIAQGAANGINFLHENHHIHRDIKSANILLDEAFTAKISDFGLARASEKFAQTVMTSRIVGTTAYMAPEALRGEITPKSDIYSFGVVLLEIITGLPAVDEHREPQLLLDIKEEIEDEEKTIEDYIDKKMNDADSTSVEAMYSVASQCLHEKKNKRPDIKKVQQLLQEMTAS
Method in brief: as §1

JNK1 = JNK1 (Homo sapiens, UniProt P45983)
JNK1, sequence (P45983 whole entry): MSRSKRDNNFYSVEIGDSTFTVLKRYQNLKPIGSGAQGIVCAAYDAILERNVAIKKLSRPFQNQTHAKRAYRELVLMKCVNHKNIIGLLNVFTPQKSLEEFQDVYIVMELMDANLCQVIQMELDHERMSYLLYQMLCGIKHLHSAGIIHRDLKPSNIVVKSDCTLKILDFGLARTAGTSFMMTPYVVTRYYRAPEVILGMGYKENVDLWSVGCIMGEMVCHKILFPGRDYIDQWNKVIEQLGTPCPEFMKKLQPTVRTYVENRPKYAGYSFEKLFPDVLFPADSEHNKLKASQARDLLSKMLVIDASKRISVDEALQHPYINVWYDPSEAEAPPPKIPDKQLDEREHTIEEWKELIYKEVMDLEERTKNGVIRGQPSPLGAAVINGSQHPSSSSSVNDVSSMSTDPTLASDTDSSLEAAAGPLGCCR
Method in brief: as §1

MAP2K5 = biological target: T3, MAP2K5 (Homo sapiens, UniProt Q13163)
T3 sequence (Q13163 1-448): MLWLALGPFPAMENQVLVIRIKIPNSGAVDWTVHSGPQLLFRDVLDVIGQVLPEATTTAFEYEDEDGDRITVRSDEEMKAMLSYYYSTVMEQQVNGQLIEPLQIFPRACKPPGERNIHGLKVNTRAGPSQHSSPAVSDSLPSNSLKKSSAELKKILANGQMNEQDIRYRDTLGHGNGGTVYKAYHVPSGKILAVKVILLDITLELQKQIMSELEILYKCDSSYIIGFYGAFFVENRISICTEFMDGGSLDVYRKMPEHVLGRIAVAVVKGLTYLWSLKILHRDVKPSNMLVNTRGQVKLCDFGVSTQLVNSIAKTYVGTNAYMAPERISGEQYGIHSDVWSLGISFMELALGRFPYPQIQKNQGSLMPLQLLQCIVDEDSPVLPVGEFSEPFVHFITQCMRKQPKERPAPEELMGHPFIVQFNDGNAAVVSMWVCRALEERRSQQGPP
Method in brief: as §1

PKD2 = biological target: T4, PKD2 (Homo sapiens, UniProt Q9BZL6)
T4 sequence (Q9BZL6 1-878): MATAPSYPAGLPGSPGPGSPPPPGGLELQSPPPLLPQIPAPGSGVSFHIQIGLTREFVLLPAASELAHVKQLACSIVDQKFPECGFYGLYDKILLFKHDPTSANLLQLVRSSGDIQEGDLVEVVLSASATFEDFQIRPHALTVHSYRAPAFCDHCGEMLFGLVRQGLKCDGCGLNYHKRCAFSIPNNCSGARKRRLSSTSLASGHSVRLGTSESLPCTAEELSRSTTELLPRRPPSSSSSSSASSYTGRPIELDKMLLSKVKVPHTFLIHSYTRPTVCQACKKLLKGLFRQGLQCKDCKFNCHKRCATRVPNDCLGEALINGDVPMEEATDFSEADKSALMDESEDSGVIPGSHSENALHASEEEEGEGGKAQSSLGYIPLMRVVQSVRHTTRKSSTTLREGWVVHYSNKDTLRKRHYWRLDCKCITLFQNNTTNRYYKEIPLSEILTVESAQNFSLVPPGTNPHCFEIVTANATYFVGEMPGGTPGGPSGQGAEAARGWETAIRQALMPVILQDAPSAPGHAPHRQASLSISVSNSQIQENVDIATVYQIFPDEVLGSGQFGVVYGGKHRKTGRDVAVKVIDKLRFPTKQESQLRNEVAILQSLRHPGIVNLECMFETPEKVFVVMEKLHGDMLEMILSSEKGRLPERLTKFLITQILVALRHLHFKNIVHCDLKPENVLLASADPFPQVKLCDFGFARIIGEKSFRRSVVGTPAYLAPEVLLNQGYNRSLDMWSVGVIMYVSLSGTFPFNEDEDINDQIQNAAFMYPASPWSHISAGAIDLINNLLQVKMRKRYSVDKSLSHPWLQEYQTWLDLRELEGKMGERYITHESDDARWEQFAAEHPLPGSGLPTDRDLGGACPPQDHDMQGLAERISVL
Method in brief: as §1

PLK1 = PLK1 (Homo sapiens, UniProt P53350)
PLK1, sequence (P53350 whole entry): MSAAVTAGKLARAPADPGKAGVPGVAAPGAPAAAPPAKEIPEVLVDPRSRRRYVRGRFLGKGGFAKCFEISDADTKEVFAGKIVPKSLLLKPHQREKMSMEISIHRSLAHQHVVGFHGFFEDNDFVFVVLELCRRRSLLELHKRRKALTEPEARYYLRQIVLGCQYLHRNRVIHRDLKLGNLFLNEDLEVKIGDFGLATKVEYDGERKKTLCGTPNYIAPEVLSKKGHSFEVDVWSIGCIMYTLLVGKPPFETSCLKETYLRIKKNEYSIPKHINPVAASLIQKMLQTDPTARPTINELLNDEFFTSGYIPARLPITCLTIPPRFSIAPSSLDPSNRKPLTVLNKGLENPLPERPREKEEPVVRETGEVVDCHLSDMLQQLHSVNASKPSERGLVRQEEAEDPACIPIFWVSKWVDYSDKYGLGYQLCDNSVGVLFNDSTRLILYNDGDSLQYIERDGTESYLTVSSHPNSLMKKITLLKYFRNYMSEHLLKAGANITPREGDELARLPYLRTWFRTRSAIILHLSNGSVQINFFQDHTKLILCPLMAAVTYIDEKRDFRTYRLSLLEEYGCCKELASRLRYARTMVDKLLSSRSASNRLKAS
Method in brief: as §1

inhibition at 10 µM (AurA): 97%
inhibition at 10 µM (DNAPK): 84%
Competition % (IRAK4): 97.4%
Competition % (JNK1): 87%
inhibition at 10 µM (MAP2K5): 97.5%
inhibition at 10 µM (PKD2): 98%
inhibition at 10 µM (PLK1): 96.8%
SMILES: CS(=O)(=O)Nc1ccccc1Nc1nc(Nc2cccc(OCCN)c2)ncc1Cl [CZC31326, N-(2-(2-(3-(2-aminoethoxy)phenylamino)-5-chloropyrimidin-4-ylamino)phenyl)methanesulfonamide]
